Here are results for one compound from article PMC5218480 (PLoS ONE, 2017).

Each structure is given as a SMILES string.

The test system of this experiment is MV-4-11 cells. In words: Gene expression microarray analysis (Affymetrix PrimeView) and GSEA. The experiment is classed as cell-based, human. On the set-up: RFU PODN (11730768_x_at) / Fold change /veh PODN (11730768_x_at) / RFU LINC00158 (11744669_a_at) / Fold change /veh LINC00158 (11744669_a_at) / RFU DUSP10 (11751237_a_at) / Fold change /veh DUSP10 (11751237_a_at) / RFU ID3 (11757404_x_at) / Fold change /veh ID3 (11757404_x_at) / RFU PLEKHG5 (11737974_s_at) / Fold change /veh PLEKHG5 (11737974_s_at) / RFU LRRC4B (11730491_at) / Fold change /veh LRRC4B (11730491_at) / RFU GIMAP4 (11747438_a_at) / Fold change /veh GIMAP4 (11747438_a_at) / RFU KRT8 (11758183_x_at) / Fold change /veh KRT8 (11758183_x_at) / RFU CNN1 (11734310_a_at) / Fold change /veh CNN1 (11734310_a_at) / RFU VPS37D (11726825_at) / Fold change /veh VPS37D (11726825_at) / RFU C10orf10 (11716522_x_at) / Fold change /veh C10orf10 (11716522_x_at) / RFU KIR2DL2 /// KIR2DL4 /// KIR2DL5A /// KIR2DL5B /// KIR2DS1 /// KIR2DS2 /// KIR2DS3 /// KIR2DS4 /// KIR3DL3 /// KIR3DL3 /// KIR3DS1 (11738374_at) / Fold change /veh KIR2DL2 /// KIR2DL4 /// KIR2DL5A /// KIR2DL5B /// KIR2DS1 /// KIR2DS2 /// KIR2DS3 /// KIR2DS4 /// KIR3DL3 /// KIR3DL3 /// KIR3DS1 (11738374_at) / RFU C1QL1 (11718748_at) / Fold change /veh C1QL1 (11718748_at) / RFU TMPRSS4 (11747572_a_at) / Fold change /veh TMPRSS4 (11747572_a_at) / RFU HAMP (11756126_x_at) / Fold change /veh HAMP (11756126_x_at) / RFU RNFT2 (11725882_a_at) / Fold change /veh RNFT2 (11725882_a_at) / RFU NR4A2 (11747474_a_at) / Fold change /veh NR4A2 (11747474_a_at) / RFU ABCC12 (11746883_a_at) / Fold change /veh ABCC12 (11746883_a_at) / RFU TMEM136 (11760407_x_at) / Fold change /veh TMEM136 (11760407_x_at) / RFU CLDN22 /// WWC2 (11732394_at) / Fold change /veh CLDN22 /// WWC2 (11732394_at) / RFU HLA-DPB1 (11760878_x_at) / Fold change /veh HLA-DPB1 (11760878_x_at) / RFU SPINT1 (11716480_a_at) / Fold change /veh SPINT1 (11716480_a_at) / RFU GAP43 (11754022_s_at) / Fold change /veh GAP43 (11754022_s_at) / RFU A4GNT (11735810_at) / Fold change /veh A4GNT (11735810_at) / RFU PRB3 (11715151_x_at) / Fold change /veh PRB3 (11715151_x_at) / RFU TUBB4B (11761932_at) / Fold change /veh TUBB4B (11761932_at) / RFU CAPN14 (11732068_a_at) / Fold change /veh CAPN14 (11732068_a_at) / RFU TMCC2 (11721928_a_at) / Fold change /veh TMCC2 (11721928_a_at) / RFU IRGQ (11745062_a_at) / Fold change /veh IRGQ (11745062_a_at) / RFU FAM174B (11720279_a_at) / Fold change /veh FAM174B (11720279_a_at) / RFU TMPRSS4 (11748680_a_at) / Fold change /veh TMPRSS4 (11748680_a_at) / RFU FAM212B (11763350_a_at) / Fold change /veh FAM212B (11763350_a_at) / RFU PLEKHG5 (11743358_a_at) / Fold change /veh PLEKHG5 (11743358_a_at) / RFU ZSCAN30 (11745921_a_at) / Fold change /veh ZSCAN30 (11745921_a_at) / RFU CMKLR1 (11741424_a_at) / Fold change /veh CMKLR1 (11741424_a_at) / RFU LOC101060620 /// MAPK8IP1 (11723275_at) / Fold change /veh LOC101060620 /// MAPK8IP1 (11723275_at) / RFU SPTSSB (11747773_x_at) / Fold change /veh SPTSSB (11747773_x_at) / RFU PRSS12 (11739890_at) / Fold change /veh PRSS12 (11739890_at) / RFU BIN1 (11741810_x_at) / Fold change /veh BIN1 (11741810_x_at) / RFU WNT11 (11732464_a_at) / Fold change /veh WNT11 (11732464_a_at) / RFU C10orf10 (11716521_a_at) / Fold change /veh C10orf10 (11716521_a_at) / RFU C5orf56 (11738089_at) / Fold change /veh C5orf56 (11738089_at) / RFU CYB561 (11721691_x_at) / Fold change /veh CYB561 (11721691_x_at) / RFU ANKRD19P (11752326_a_at) / Fold change /veh ANKRD19P (11752326_a_at) / RFU OR2T12 /// OR2T33 /// OR2T8 (11738714_s_at) / Fold change /veh OR2T12 /// OR2T33 /// OR2T8 (11738714_s_at) / RFU VCAN (11748164_a_at) / Fold change /veh VCAN (11748164_a_at) / RFU JSRP1 (11732532_at) / Fold change /veh JSRP1 (11732532_at) / RFU KRTAP10-11 (11738290_x_at) / Fold change /veh KRTAP10-11 (11738290_x_at) / RFU MYO3A (11730013_a_at) / Fold change /veh MYO3A (11730013_a_at) / RFU EBF3 (11725865_a_at) / Fold change /veh EBF3 (11725865_a_at) / RFU CAMK2N1 (11719241_x_at) / Fold change /veh CAMK2N1 (11719241_x_at) / RFU C5orf56 (11738088_a_at) / Fold change /veh C5orf56 (11738088_a_at) / RFU OLFML3 (11715873_a_at) / Fold change /veh OLFML3 (11715873_a_at) / RFU LOC100653217 /// NTM (11731650_a_at) / Fold change /veh LOC100653217 /// NTM (11731650_a_at) / RFU MAPK11 (11762145_a_at) / Fold change /veh MAPK11 (11762145_a_at) / RFU FIZ1 (11724087_x_at) / Fold change /veh FIZ1 (11724087_x_at) / RFU OASL (11726364_x_at) / Fold change /veh OASL (11726364_x_at) / RFU SOX15 (11748057_x_at) / Fold change /veh SOX15 (11748057_x_at) / RFU CD79A (11719716_a_at) / Fold change /veh CD79A (11719716_a_at) / RFU HIST1H1D (11736915_at) / Fold change /veh HIST1H1D (11736915_at) / RFU CASKIN2 (11723855_a_at) / Fold change /veh CASKIN2 (11723855_a_at) / RFU LOC730098 (11760151_x_at) / Fold change /veh LOC730098 (11760151_x_at) / RFU OR4N2 (11742367_at) / Fold change /veh OR4N2 (11742367_at) / RFU PRRT2 (11749266_a_at) / Fold change /veh PRRT2 (11749266_a_at) / RFU SNX32 (11753110_a_at) / Fold change /veh SNX32 (11753110_a_at) / RFU CDHR5 (11726645_a_at) / Fold change /veh CDHR5 (11726645_a_at) / RFU RCAN1 (11760418_a_at) / Fold change /veh RCAN1 (11760418_a_at) / RFU FAM167A (11723789_a_at) / Fold change /veh FAM167A (11723789_a_at) / RFU FAM26E (11764081_at) / Fold change /veh FAM26E (11764081_at) / RFU ISYNA1 (11749810_s_at) / Fold change /veh ISYNA1 (11749810_s_at) / RFU ACY1 (11761880_at) / Fold change /veh ACY1 (11761880_at) / RFU 11764098_at / Fold change /veh 11764098_at / RFU SAMD14 (11745864_x_at) / Fold change /veh SAMD14 (11745864_x_at) / RFU NPB (11741838_a_at) / Fold change /veh NPB (11741838_a_at) / RFU TMPRSS6 (11731388_a_at) / Fold change /veh TMPRSS6 (11731388_a_at) / RFU KRTAP10-2 (11738614_at) / Fold change /veh KRTAP10-2 (11738614_at) / RFU ARHGAP8 /// PRR5-ARHGAP8 (11727945_x_at) / Fold change /veh ARHGAP8 /// PRR5-ARHGAP8 (11727945_x_at) / RFU KRTAP5-7 /// NADSYN1 (11734609_at) / Fold change /veh KRTAP5-7 /// NADSYN1 (11734609_at) / RFU RASL12 (11751679_a_at) / Fold change /veh RASL12 (11751679_a_at) / RFU CDKN2B (11736163_a_at) / Fold change /veh CDKN2B (11736163_a_at) / RFU PRF1 (11729649_at) / Fold change /veh PRF1 (11729649_at) / RFU, ZNF638 /// ZNF638-IT1 / Fold change vs veh, ZNF638 /// ZNF638-IT1 / RFU, PANK3 / Fold change vs veh, PANK3 / RFU, SH3YL1 / Fold change vs veh, SH3YL1 / RFU, ZEB2 / Fold change vs veh, ZEB2 / RFU, NRIP1 / Fold change vs veh, NRIP1 / RFU, PTTG1IP / Fold change vs veh, PTTG1IP / RFU, CAPN2 / Fold change vs veh, CAPN2 / RFU, MED14 / Fold change vs veh, MED14 / RFU, SNORA58 / Fold change vs veh, SNORA58 / RFU, C1orf63 / Fold change vs veh, C1orf63 / RFU, LRRFIP1 / Fold change vs veh, LRRFIP1 / RFU, NDUFAF7 / Fold change vs veh, NDUFAF7 / RFU, SLC12A2 / Fold change vs veh, SLC12A2 / RFU, IBTK / Fold change vs veh, IBTK / RFU, ESF1 / Fold change vs veh, ESF1 / Fold change vs veh, TMEM50B / RFU, TAOK1 / Fold change vs veh, TAOK1 / RFU, ACBD3 / Fold change vs veh, ACBD3 / RFU, TMA16 / Fold change vs veh, TMA16 / RFU, RWDD3 / Fold change vs veh, RWDD3 / RFU, BCAT1 / Fold change vs veh, BCAT1 / RFU, EDEM3 / Fold change vs veh, EDEM3 / RFU, TMEM33 / Fold change vs veh, TMEM33 / RFU, WDR75 / Fold change vs veh, WDR75 / RFU, AHCTF1 / Fold change vs veh, AHCTF1 / RFU, TFRC / Fold change vs veh, TFRC / RFU, ZDHHC17 / Fold change vs veh, ZDHHC17 / RFU, NOM1 / Fold change vs veh, NOM1 / RFU, ARL8B / Fold change vs veh, ARL8B / RFU, ZBTB11 / Fold change vs veh, ZBTB11 / RFU, TAMM41 / Fold change vs veh, TAMM41 / RFU, KIAA1704 /// LOC100996395 / Fold change vs veh, KIAA1704 /// LOC100996395 / RFU, ING1 / Fold change vs veh, ING1 / RFU, TRMT61B / Fold change vs veh, TRMT61B / RFU, FUBP3 / Fold change vs veh, FUBP3 / RFU, TP53 / Fold change vs veh, TP53 / RFU, TNKS2 / Fold change vs veh, TNKS2 / RFU, ZFP14 / Fold change vs veh, ZFP14 / RFU, ACTR2 / Fold change vs veh, ACTR2 / RFU, PPP3R1 / Fold change vs veh, PPP3R1 / RFU, PIK3R1 / Fold change vs veh, PIK3R1 / RFU, HNRNPA1 / Fold change vs veh, HNRNPA1 / RFU, RNF170 / Fold change vs veh, RNF170 / RFU, ZNF28 / Fold change vs veh, ZNF28 / RFU, RNGTT / Fold change vs veh, RNGTT / RFU, OGT / Fold change vs veh, OGT / RFU, BRD1 / Fold change vs veh, BRD1 / RFU, MARS / Fold change vs veh, MARS / RFU, ZNF655 / Fold change vs veh, ZNF655 / RFU, FAHD1 / Fold change vs veh, FAHD1 / RFU, BDP1 / Fold change vs veh, BDP1 / RFU, LRRCC1 / Fold change vs veh, LRRCC1 / RFU, ARID1A / Fold change vs veh, ARID1A / RFU, ZNF146 / Fold change vs veh, ZNF146 / RFU, ZNF330 / Fold change vs veh, ZNF330 / RFU, GPN3 / Fold change vs veh, GPN3 / RFU, C9orf123 / Fold change vs veh, C9orf123 / RFU, N4BP2L2 / Fold change vs veh, N4BP2L2 / RFU, ARFIP1 / Fold change vs veh, ARFIP1 / RFU, FAM179B / Fold change vs veh, FAM179B / RFU, BCL10 / Fold change vs veh, BCL10 / RFU, UHRF1BP1L / Fold change vs veh, UHRF1BP1L / RFU, BET1 / Fold change vs veh, BET1 / RFU, CNOT2 / Fold change vs veh, CNOT2 / RFU, ZNF268 / Fold change vs veh, ZNF268 / Fold change vs veh, ZNF507 / RFU, DGCR2 / Fold change vs veh, DGCR2 / RFU, WDSUB1 / Fold change vs veh, WDSUB1 / Fold change vs veh, HSP90B1 /// MIR3652 / RFU, ADSS / Fold change vs veh, ADSS / RFU, GK / Fold change vs veh, GK / RFU, ZNF148 / Fold change vs veh, ZNF148 / RFU, TAF9 / Fold change vs veh, TAF9 / RFU, SLC1A5 / Fold change vs veh, SLC1A5 / RFU, SLMO2 / Fold change vs veh, SLMO2 / RFU, ABCC4 / Fold change vs veh, ABCC4 / RFU, LOC101060439 /// RAP1B / Fold change vs veh, LOC101060439 /// RAP1B / RFU, RFX7 / Fold change vs veh, RFX7 / RFU, GTPBP10 / Fold change vs veh, GTPBP10 / RFU, CNEP1R1 / Fold change vs veh, CNEP1R1 / RFU, BIVM-ERCC5 /// ERCC5 / Fold change vs veh, BIVM-ERCC5 /// ERCC5 / RFU, ILF3 / Fold change vs veh, ILF3 / RFU 11762660_at / Fold change /veh 11762660_at / RFU VCAN (11757783_s_at) / Fold change /veh VCAN (11757783_s_at) / RFU DDX43 (11728927_at) / Fold change /veh DDX43 (11728927_at) / RFU KRT8 (11758188_x_at) / Fold change /veh KRT8 (11758188_x_at) / RFU NKD1 (11759106_at) / Fold change /veh NKD1 (11759106_at) / RFU SRD5A1 (11742802_a_at) / Fold change /veh SRD5A1 (11742802_a_at) / RFU TPSAB1 /// TPSB2 (11721975_s_at) / Fold change /veh TPSAB1 /// TPSB2 (11721975_s_at) / RFU GSTM3 (11746129_a_at) / Fold change /veh GSTM3 (11746129_a_at) / RFU IL23R (11737362_x_at) / Fold change /veh IL23R (11737362_x_at) / RFU TMEM51 (11727254_a_at) / Fold change /veh TMEM51 (11727254_a_at) / RFU PIWIL2 (11732686_x_at) / Fold change /veh PIWIL2 (11732686_x_at) / RFU ORM1 (11744905_x_at) / Fold change /veh ORM1 (11744905_x_at) / RFU CCDC152 (11743942_at) / Fold change /veh CCDC152 (11743942_at) / RFU ECM1 (11717891_a_at) / Fold change /veh ECM1 (11717891_a_at) / RFU IL23R (11748794_a_at) / Fold change /veh IL23R (11748794_a_at) / RFU TNFAIP8L3 (11732012_x_at) / Fold change /veh TNFAIP8L3 (11732012_x_at) / RFU MBOAT4 (11741988_at) / Fold change /veh MBOAT4 (11741988_at) / RFU 11764193_at / Fold change /veh 11764193_at / RFU TMEM53 (11763286_at) / Fold change /veh TMEM53 (11763286_at) / RFU MAGEB2 (11727129_at) / Fold change /veh MAGEB2 (11727129_at) / RFU TMEM200A (11744735_a_at) / Fold change /veh TMEM200A (11744735_a_at) / RFU CCDC152 (11751479_a_at) / Fold change /veh CCDC152 (11751479_a_at) / RFU FAM211A (11726209_a_at) / Fold change /veh FAM211A (11726209_a_at) / RFU RGS16 (11746705_a_at) / Fold change /veh RGS16 (11746705_a_at) / RFU VCAN (11755009_s_at) / Fold change /veh VCAN (11755009_s_at) / RFU RHOB (11743442_s_at) / Fold change /veh RHOB (11743442_s_at) / RFU RGS16 (11720943_a_at) / Fold change /veh RGS16 (11720943_a_at) / RFU RGS16 (11720944_at) / Fold change /veh RGS16 (11720944_at) / RFU, VPS4B / Fold change vs veh, VPS4B / RFU, CREB1 / Fold change vs veh, CREB1 / RFU, DNAJC13 / Fold change vs veh, DNAJC13 / RFU, GNAQ / Fold change vs veh, GNAQ / RFU, CDK5R1 / Fold change vs veh, CDK5R1 / RFU, ZRANB3 / Fold change vs veh, ZRANB3 / RFU, CUL4A / Fold change vs veh, CUL4A / RFU, CCNY / Fold change vs veh, CCNY / RFU, UFL1 / Fold change vs veh, UFL1 / RFU, COG3 / Fold change vs veh, COG3 / RFU, DIAPH2 / Fold change vs veh, DIAPH2 / RFU, SKA2 / Fold change vs veh, SKA2 / RFU, AFF3 / Fold change vs veh, AFF3 / RFU, LMF1 / Fold change vs veh, LMF1 / RFU, IPO11 / Fold change vs veh, IPO11 / RFU, DFFB / Fold change vs veh, DFFB / RFU, FOXP1 / Fold change vs veh, FOXP1 / RFU, CARD8 / Fold change vs veh, CARD8 / RFU, STRN3 / Fold change vs veh, STRN3 / RFU, ADK / Fold change vs veh, ADK / RFU, RASSF2 / Fold change vs veh, RASSF2 / RFU, WIPF1 / Fold change vs veh, WIPF1 / RFU, LARP1B / Fold change vs veh, LARP1B / RFU, RASA1 / Fold change vs veh, RASA1 / RFU, RB1 / Fold change vs veh, RB1 / RFU, PPFIA1 / Fold change vs veh, PPFIA1 / RFU, MAT2A / Fold change vs veh, MAT2A / RFU, CCT5 / Fold change vs veh, CCT5 / RFU, WDR92 / Fold change vs veh, WDR92 / RFU, CUX1 / Fold change vs veh, CUX1 / RFU, TTC7A / Fold change vs veh, TTC7A / RFU, TMEM135 / Fold change vs veh, TMEM135 / RFU, DEPTOR / Fold change vs veh, DEPTOR / RFU, CPM / Fold change vs veh, CPM / RFU, DNAJB6 / Fold change vs veh, DNAJB6 / RFU, CACNA2D3 / Fold change vs veh, CACNA2D3 / RFU, DTX4 / Fold change vs veh, DTX4 / RFU, TFCP2 / Fold change vs veh, TFCP2 / RFU, GMCL1 /// GMCL1P1 / Fold change vs veh, GMCL1 /// GMCL1P1 / RFU, AEBP2 / Fold change vs veh, AEBP2 / RFU, SNHG1 /// SNORD22 /// SNORD25 /// SNORD26 /// SNORD27 /// SNORD28 /// SNORD29 /// SNORD31 / Fold change vs veh, SNHG1 /// SNORD22 /// SNORD25 /// SNORD26 /// SNORD27 /// SNORD28 /// SNORD29 /// SNORD31 / Fold change (Aza/veh), C12orf56 (ProbeSet 11735607_a_at) / Fold change (ACY-1035/veh), C12orf56 (ProbeSet 11735607_a_at) / Fold change (Aza/veh), FGFR1OP (ProbeSet 11751329_s_at) / Fold change (ACY-1035/veh), FGFR1OP (ProbeSet 11751329_s_at) / Fold change (Aza/veh), VPS36 (ProbeSet 11739960_a_at) / Fold change (ACY-1035/veh), VPS36 (ProbeSet 11739960_a_at) / RFU SYPL1 (11715823_x_at) / Fold change /veh SYPL1 (11715823_x_at) / RFU IGFBP7 (11715501_s_at) / Fold change /veh IGFBP7 (11715501_s_at) / RFU REEP3 (11722064_at) / Fold change /veh REEP3 (11722064_at) / RFU IGLL1 (11728026_x_at) / Fold change /veh IGLL1 (11728026_x_at): dose or concentration left out as unconfirmed. The note with it: ProbeSet 11719632_a_at; LIST B.

As to `Nc1ncn([C@@H]2O[C@H](CO)[C@@H](O)[C@H]2O)c(=O)n1` [azacitidine], the “RFU, ABCC4” value was 39.11 RFU.
